According to patent publication US20250214977A1, “STAT6 INHIBITORS AND USES THEREOF” (Kymera Therapeutics, Inc., priority 2024, published 2025):

The compounds below were run on Phosphorylation of STAT6 in human A549 cells (assay: Phosphorylated STAT6 (pSTAT6) flow cytometry assay in human A549 cells). Details: read-out: STAT6 IL4 pSTAT6 assay in A549 cells: Average IC50.
Type: cell-based
Excerpt: Example 3. Phosphorylated STAT6 (pSTAT6) Flow Cytometry Assay in Human A549 Cells
Phosphorylation of STAT6 in human A549 cells was quantitatively measured using flow cytometry technology.

Row | SMILES | IC50
1 | COc1ccccc1-c1cc(C2=CCCN(C(=O)CCn3ccnn3)C2)c(F)c2[nH]c(C(=O)N3CCN(c4ccc5c(c4)Nc4ccccc4CC5)CC3)cc12 [Example I-947] | 1000 to 10000 nM
2 | COc1ccccc1-c1cc(C2=CCCN(C(=O)CCn3ccnn3)C2)c(F)c2[nH]c(C(=O)N3CCN(c4ccnc(Nc5ccc(C#N)cc5)n4)CC3)cc12 [Example I-948] | < 100 nM
3 | COc1ccccc1-c1cc(C2=CCCN(C(=O)CCn3ccnn3)C2)c(F)c2[nH]c(C(=O)N3CCN(c4cn(C)c(=O)n(C)c4=O)CC3)cc12 [Example I-949] | < 100 nM
4 | COc1ccccc1-c1cc(C2=CCCN(C(=O)CCn3ccnn3)C2)c(F)c2[nH]c(C(=O)N3CCN(c4cc(C)cn5ncnc45)CC3)cc12 [Example I-950] | < 100 nM
5 | COc1ccccc1-c1cc(C2=CCCN(C(=O)CCn3ccnn3)C2)c(F)c2[nH]c(C(=O)N3CCN(c4cccc5nonc45)CC3)cc12 [Example I-951] | < 100 nM
6 | COc1ccccc1-c1cc(C2=CCCN(C(=O)CCn3ccnn3)C2)c(F)c2[nH]c(C(=O)N3CCN(c4cc5ccccc5nc4O)CC3)cc12 [Example I-952] | < 100 nM
7 | COc1ccccc1-c1cc(C2=CCCN(C(=O)CCn3ccnn3)C2)c(F)c2[nH]c(C(=O)N3CCN(c4cc(F)c5ncccc5c4)CC3)cc12 [Example I-953] | < 100 nM
8 | COc1ccccc1-c1cc(C2=CCCN(C(=O)CCn3ccnn3)C2)c(F)c2[nH]c(C(=O)N3CCN(c4cncc5cccnc45)CC3)cc12 [Example I-954] | < 100 nM
9 | COc1cc2ncnc(N3CCN(C(=O)c4cc5c(-c6ccccc6OC)cc(C6=CCCN(C(=O)CCn7ccnn7)C6)c(F)c5[nH]4)CC3)c2cc1O [Example I-955] | < 100 nM
10 | COc1ccccc1-c1cc(C2=CCCN(C(=O)CCn3ccnn3)C2)c(F)c2[nH]c(C(=O)N3CCN(c4ccc5ccccc5c4OC)CC3)cc12 [Example I-956] | 1000 to 10000 nM
11 | COc1cc(N2CCN(C(=O)c3cc4c(-c5ccccc5OC)cc(C5=CCCN(C(=O)CCn6ccnn6)C5)c(F)c4[nH]3)CC2)c2ccccc2c1 [Example I-957] | 100 to 1000 nM
12 | COc1cc(C)c(N2CCN(C(=O)c3cc4c(-c5ccccc5OC)cc(C5=CCCN(C(=O)CCn6ccnn6)C5)c(F)c4[nH]3)CC2)c(C)n1 [Example I-958] | 100 to 1000 nM
13 | COc1ccccc1-c1cc(C2=CCCN(C(=O)CCn3ccnn3)C2)c(F)c2[nH]c(C(=O)N3CCN(c4c(C)ccc5[nH]ncc45)CC3)cc12 [Example I-959] | < 100 nM
14 | COc1ccc(N2CCN(C(=O)c3cc4c(-c5ccccc5OC)cc(C5=CCCN(C(=O)CCn6ccnn6)C5)c(F)c4[nH]3)CC2)cc1 [Example I-960] | < 100 nM
15 | COc1ccccc1-c1cc(C2=CCCN(C(=O)CCn3ccnn3)C2)c(F)c2[nH]c(C(=O)N3CCN(c4ncc(N5CCCCC5)cc4OC4CC4)CC3)cc12 [Example I-961] | < 100 nM
16 | COc1ccccc1-c1cc(C2=CCCN(C(=O)CCn3ccnn3)C2)c(F)c2[nH]c(C(=O)N3CCN(c4cc(OC)c5c(c4)nnn5C)CC3)cc12 [Example I-962] | < 100 nM
17 | COc1ccccc1-c1cc(C2=CCCN(C(=O)CCn3ccnn3)C2)c(F)c2[nH]c(C(=O)N3CCN(c4ccc5cn[nH]c5c4)CC3)cc12 [Example I-963] | < 100 nM
18 | COc1ccccc1-c1cc(C2=CCCN(C(=O)CCn3ccnn3)C2)c(F)c2[nH]c(C(=O)N3CCN(c4cc(C)cc(Br)c4OC)CC3)cc12 [Example I-964] | 100 to 1000 nM
19 | COc1ccccc1-c1cc(C2=CCCN(C(=O)CCn3ccnn3)C2)c(F)c2[nH]c(C(=O)N3CCN(c4c(O)ccc5ccccc45)CC3)cc12 [Example I-965] | 100 to 1000 nM
20 | COc1ccccc1-c1cc(C2=CCCN(C(=O)CCn3ccnn3)C2)c(F)c2[nH]c(C(=O)N3CCN(c4nccc5[nH]ccc45)CC3)cc12 [Example I-966] | < 100 nM
21 | CCn1c(N2CCN(C(=O)c3cc4c(-c5ccccc5OC)cc(C5=CCCN(C(=O)CCn6ccnn6)C5)c(F)c4[nH]3)CC2)cc2ccccc21 [Example I-967] | 100 to 1000 nM

Row | SMILES | IC50
22 | COc1ccccc1-c1cc(C2=CCCN(C(=O)CCn3ccnn3)C2)c(F)c2[nH]c(C(=O)N3CCN(c4ccccc4C(F)(F)F)CC3)cc12 [Example I-968] | 100 to 1000 nM
23 | CCc1ccccc1N1CCN(C(=O)c2cc3c(-c4ccccc4OC)cc(C4=CCCN(C(=O)CCn5ccnn5)C4)c(F)c3[nH]2)CC1 [Example I-969] | 100 to 1000 nM
24 | COc1ccccc1-c1cc(C2=CCCN(C(=O)CCn3ccnn3)C2)c(F)c2[nH]c(C(=O)N3CCN(c4ccc(=O)n(C)c4)CC3)cc12 [Example I-971] | < 100 nM
25 | COc1ccccc1-c1cc(C2=CCCN(C(=O)CCn3ccnn3)C2)c(F)c2[nH]c(C(=O)N3CCN(c4c(F)ccc5cnccc45)CC3)cc12 [Example I-972] | < 100 nM
26 | COc1cccnc1N1CCN(C(=O)c2cc3c(-c4cccc(F)c4OC)cc(C4=CCCN(C(=O)CCn5ccnn5)C4)c(F)c3[nH]2)C(C)C1 (centres unmarked) [Example I-973] | 100 to 1000 nM
27 | COc1ccccc1-c1cc(C2=CCCN(C(=O)CCn3ccnn3)C2)c(F)c2[nH]c(C(=O)N3CCc4ncccc43)cc12 [Example I-974] | < 100 nM
28 | COc1ccccc1-c1cc(C2=CCCN(C(=O)CCn3ccnn3)C2)c(F)c2[nH]c(C(=O)N3Cc4ccc(C#N)cc4C3)cc12 [Example I-975] | < 100 nM
29 | COc1ccccc1-c1cc(C2=CCCN(C(=O)CCn3ccnn3)C2)c(F)c2[nH]c(C(=O)N(C)Cc3ccc4c(c3)OCO4)cc12 [Example I-976] | < 100 nM
30 | COc1ccccc1-c1cc(C2=CCCN(C(=O)CCn3ccnn3)C2)c(F)c2[nH]c(C(=O)N3CCc4cc(C(F)(F)F)ccc4C3)cc12 [Example I-977] | < 100 nM
31 | COc1ccccc1-c1cc(C2=CCCN(C(=O)CCn3ccnn3)C2)c(F)c2[nH]c(C(=O)N(C)C3Cc4ccccc4C3)cc12 [Example I-978] | 100 to 1000 nM
32 | COc1ccc(NC(=O)c2cc3c(-c4ccccc4OC)cc(C4=CCCN(C(=O)CCn5ccnn5)C4)c(F)c3[nH]2)cn1 [Example I-979] | 100 to 1000 nM
33 | CCS(=O)(=O)N1CCN(C(=O)c2cc3c(-c4ccccc4OC)cc(C4=CCCN(C(=O)CCn5ccnn5)C4)c(F)c3[nH]2)CC1 [Example I-980] | < 100 nM
34 | COc1ccccc1-c1cc(C2=CCCN(C(=O)CCn3ccnn3)C2)c(F)c2[nH]c(C(=O)N3CCC(n4c(=O)[nH]c5ncccc54)CC3)cc12 [Example I-981] | 100 to 1000 nM
35 | COc1ccccc1-c1cc(C2=CCCN(C(=O)CCn3ccnn3)C2)c(F)c2[nH]c(C(=O)N3Cc4cccc(F)c4C3)cc12 [Example I-982] | > 100000 nM
36 | COc1ccccc1-c1cc(C2=CCCN(C(=O)CCn3ccnn3)C2)c(F)c2[nH]c(C(=O)N3CCNC(=O)CC3)cc12 [Example I-983] | < 100 nM
37 | COc1ccccc1-c1cc(C2=CCCN(C(=O)CCn3ccnn3)C2)c(F)c2[nH]c(C(=O)N3CCC(OC4CCC4)CC3)cc12 [Example I-984] | < 100 nM
38 | COc1ccccc1-c1cc(C2=CCCN(C(=O)CCn3ccnn3)C2)c(F)c2[nH]c(C(=O)N3CCOCC3)cc12 [Example I-985] | < 100 nM
39 | COc1ccccc1-c1cc(C2=CCCN(C(=O)CCn3ccnn3)C2)c(F)c2[nH]c(C(=O)N(C)CCc3ccccn3)cc12 [Example I-986] | < 100 nM
40 | COc1ccccc1-c1cc(C2=CCCN(C(=O)CCn3ccnn3)C2)c(F)c2[nH]c(C(=O)N3CC4CCN(Cc5ccccc5)C4C3)cc12 (centres unmarked) [Example I-987] | 1000 to 10000 nM
41 | COC(=O)N1CCN(C(=O)c2cc3c(-c4ccccc4OC)cc(C4=CCCN(C(=O)CCn5ccnn5)C4)c(F)c3[nH]2)CC1 [Example I-988] | < 100 nM
